In general, inhibition refers to the drop in the measured response relative to a control, in per cent. The Ki is the dissociation constant of the complex between target and ligand, obtained from inhibition or displacement.

Results on 14 compounds are retold here after patent US20230312576A1, “4-(7H-PYRROLO[2,3-D]PYRIMIDIN-4-YL)-3,6-DIHYDROPYRIDINE-1-(2H)-CARBOXAMIDE DERIVATIVES AS LIMK AND/OR ROCK KINASES INHIBITORS FOR USE IN THE TREATMENT OF CANCER” (CENTRE NATIONAL DE LA RECHERCHE SCIENTIFIQUE, priority 2020, published 2023).

Read-outs that look alike come from different tables or passages of the source.

In assay [1] the test system is cofilin phosphorylation, HeLa cells. The experiment in a line: Cofilin phosphorylation by Western Blot (anti-phospho-Ser3-cofilin) in HeLa cells. The class given is cell-based. The note with it: for inhibition at 25 µM: Homo sapiens. For orientation: In western blotting, separated proteins are transferred to a membrane and probed.
Another assay addresses ROCK1 (Homo sapiens (Human), UniProt Q13464). As to the kind of experiment: Z'Lyte assay, ROCK1 inhibition at a single concentration. The class given is biochemical.
In a further assay the target is ROCK2 (Homo sapiens (Human), UniProt O75116). As to the kind of experiment: Z'Lyte assay, ROCK2 inhibition at a single concentration. The class given is biochemical.
The next assay addresses LIMK2 (Homo sapiens (Human), UniProt P53671). The experiment in a line: Lanthascreen Eu binding assay (TR-FRET), inhibition of LIMK2. (In general: In TR-FRET formats the signal depends on donor and acceptor labels being close together.)
The target in a further assay is LIMK1 (Homo sapiens (Human), UniProt P53667). As to the kind of experiment: Lanthascreen Eu binding assay (TR-FRET), inhibition of LIMK1.
The mark [2] stands for this setting: HeLa, 2 h, read-out: % inhibition Cofilin phosphorylation HeLa cells treated 2 h with 25 uM of inhibitor.
Where [3] appears, read: HeLa, 2 h, read-out: % inhibition of cofilin phosphorylation in HeLa cells (treatment 2 h, at 25 μM).
The mark [4] stands for this setting: read-out: % inhibition (ROCK1) 1 uM, 1 uM.
[5] abbreviates: read-out: % inhibition (ROCK2) 1 uM, 1 uM.
The mark [6] stands for this setting: HeLa, 2 h, read-out: % inhibition of cofilin phosphorylation in HeLa cells (treatment 2 h, at 25 μM), Table 2, normalized to the control condition DMSO.
The mark [7] stands for this setting: read-out: % inhibition Cofilin phosphorylation HeLa cells treated 2 h with 25 uM of inhibitor, HeLa cells, 2 h, 25 uM.
Where [8] appears, read: read-out: % inhibition (ROCK1) 1 uM.
[9] abbreviates: read-out: % inhibition (ROCK2) 1 uM.

Sequence of ROCK2 (O75116 whole entry): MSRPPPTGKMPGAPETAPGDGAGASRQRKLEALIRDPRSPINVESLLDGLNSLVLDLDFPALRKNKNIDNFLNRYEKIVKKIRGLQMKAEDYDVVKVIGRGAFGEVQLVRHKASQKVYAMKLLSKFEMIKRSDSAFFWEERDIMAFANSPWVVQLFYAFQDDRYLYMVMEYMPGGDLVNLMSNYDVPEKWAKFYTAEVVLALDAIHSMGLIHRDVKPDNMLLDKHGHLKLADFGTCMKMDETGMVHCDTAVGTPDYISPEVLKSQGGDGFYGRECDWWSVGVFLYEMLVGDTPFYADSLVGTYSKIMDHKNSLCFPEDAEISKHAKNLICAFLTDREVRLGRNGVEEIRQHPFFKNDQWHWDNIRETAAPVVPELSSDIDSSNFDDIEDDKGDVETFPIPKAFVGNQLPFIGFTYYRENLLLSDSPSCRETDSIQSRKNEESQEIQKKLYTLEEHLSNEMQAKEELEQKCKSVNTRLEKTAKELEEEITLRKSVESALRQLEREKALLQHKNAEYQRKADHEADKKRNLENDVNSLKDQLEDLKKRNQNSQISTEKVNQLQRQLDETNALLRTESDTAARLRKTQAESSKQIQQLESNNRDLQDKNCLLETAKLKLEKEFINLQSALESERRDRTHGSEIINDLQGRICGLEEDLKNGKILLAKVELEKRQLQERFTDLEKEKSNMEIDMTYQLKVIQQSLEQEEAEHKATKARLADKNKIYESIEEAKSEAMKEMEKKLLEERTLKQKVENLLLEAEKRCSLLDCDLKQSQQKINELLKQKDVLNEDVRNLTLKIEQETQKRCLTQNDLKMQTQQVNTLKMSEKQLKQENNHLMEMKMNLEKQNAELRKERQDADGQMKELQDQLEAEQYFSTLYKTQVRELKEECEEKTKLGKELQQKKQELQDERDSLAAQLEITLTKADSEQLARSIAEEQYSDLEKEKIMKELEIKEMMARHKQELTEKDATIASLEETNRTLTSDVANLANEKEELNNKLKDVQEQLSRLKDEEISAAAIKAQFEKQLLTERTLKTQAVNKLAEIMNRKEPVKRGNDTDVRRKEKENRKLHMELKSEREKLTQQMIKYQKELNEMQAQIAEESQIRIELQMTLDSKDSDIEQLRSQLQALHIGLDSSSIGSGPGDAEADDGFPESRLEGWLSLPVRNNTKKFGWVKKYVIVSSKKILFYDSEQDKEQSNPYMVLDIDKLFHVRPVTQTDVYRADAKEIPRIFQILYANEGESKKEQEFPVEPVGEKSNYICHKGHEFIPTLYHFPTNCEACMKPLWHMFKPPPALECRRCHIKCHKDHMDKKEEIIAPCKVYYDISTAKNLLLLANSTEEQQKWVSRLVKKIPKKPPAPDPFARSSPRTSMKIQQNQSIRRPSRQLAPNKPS
Sequence of LIMK2 (P53671 whole entry): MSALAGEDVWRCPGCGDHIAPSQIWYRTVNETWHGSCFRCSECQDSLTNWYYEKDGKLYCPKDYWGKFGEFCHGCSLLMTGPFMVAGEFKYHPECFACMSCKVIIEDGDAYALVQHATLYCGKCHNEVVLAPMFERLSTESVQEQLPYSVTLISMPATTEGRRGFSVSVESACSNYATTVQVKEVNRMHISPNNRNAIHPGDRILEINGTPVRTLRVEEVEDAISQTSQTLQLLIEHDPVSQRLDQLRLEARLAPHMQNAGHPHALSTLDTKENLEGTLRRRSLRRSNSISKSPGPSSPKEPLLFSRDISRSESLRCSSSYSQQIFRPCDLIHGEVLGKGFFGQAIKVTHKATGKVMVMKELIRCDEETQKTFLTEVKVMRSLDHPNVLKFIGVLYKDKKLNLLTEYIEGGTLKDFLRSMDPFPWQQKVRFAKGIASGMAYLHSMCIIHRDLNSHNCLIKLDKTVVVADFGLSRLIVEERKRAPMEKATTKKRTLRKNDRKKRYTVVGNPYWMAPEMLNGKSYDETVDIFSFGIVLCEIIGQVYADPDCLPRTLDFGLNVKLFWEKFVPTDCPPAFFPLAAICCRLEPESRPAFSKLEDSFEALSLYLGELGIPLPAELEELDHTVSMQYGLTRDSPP
Sequence of ROCK1 (Q13464 whole entry): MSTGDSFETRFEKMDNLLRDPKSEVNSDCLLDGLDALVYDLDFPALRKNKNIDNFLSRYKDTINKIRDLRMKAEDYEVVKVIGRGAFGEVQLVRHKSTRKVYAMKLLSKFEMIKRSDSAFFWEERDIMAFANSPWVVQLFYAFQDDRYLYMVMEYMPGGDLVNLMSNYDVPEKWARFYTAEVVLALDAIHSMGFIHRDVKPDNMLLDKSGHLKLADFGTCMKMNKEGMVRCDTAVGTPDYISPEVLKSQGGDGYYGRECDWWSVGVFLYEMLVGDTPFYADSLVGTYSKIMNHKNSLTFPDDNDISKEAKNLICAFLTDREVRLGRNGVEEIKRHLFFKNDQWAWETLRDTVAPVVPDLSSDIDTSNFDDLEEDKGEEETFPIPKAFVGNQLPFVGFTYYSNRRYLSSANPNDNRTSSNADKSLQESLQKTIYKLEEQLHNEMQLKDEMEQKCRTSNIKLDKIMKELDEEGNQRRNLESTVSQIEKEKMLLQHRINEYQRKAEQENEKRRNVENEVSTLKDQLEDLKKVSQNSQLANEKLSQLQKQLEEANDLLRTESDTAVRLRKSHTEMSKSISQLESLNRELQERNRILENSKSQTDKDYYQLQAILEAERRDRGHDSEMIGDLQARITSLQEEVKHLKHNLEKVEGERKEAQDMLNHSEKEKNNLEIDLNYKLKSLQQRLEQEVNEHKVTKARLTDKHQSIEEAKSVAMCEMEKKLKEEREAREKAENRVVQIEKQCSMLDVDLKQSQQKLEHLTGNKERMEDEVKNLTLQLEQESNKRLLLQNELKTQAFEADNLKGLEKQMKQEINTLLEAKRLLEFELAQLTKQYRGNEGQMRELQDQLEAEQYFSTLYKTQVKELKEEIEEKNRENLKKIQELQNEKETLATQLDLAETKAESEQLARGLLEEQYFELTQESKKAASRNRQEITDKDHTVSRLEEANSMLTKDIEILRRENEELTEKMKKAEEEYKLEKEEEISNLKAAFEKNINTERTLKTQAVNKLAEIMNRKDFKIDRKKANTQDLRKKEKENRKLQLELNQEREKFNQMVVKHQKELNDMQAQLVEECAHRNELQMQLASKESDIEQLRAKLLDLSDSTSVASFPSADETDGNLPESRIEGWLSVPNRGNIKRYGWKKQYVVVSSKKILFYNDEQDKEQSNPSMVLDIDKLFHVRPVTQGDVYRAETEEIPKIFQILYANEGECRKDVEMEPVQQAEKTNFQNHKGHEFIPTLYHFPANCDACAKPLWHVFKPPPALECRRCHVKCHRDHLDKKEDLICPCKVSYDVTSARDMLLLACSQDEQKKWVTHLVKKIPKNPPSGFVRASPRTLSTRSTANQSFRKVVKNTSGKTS
Sequence of LIMK1 (P53667 whole entry): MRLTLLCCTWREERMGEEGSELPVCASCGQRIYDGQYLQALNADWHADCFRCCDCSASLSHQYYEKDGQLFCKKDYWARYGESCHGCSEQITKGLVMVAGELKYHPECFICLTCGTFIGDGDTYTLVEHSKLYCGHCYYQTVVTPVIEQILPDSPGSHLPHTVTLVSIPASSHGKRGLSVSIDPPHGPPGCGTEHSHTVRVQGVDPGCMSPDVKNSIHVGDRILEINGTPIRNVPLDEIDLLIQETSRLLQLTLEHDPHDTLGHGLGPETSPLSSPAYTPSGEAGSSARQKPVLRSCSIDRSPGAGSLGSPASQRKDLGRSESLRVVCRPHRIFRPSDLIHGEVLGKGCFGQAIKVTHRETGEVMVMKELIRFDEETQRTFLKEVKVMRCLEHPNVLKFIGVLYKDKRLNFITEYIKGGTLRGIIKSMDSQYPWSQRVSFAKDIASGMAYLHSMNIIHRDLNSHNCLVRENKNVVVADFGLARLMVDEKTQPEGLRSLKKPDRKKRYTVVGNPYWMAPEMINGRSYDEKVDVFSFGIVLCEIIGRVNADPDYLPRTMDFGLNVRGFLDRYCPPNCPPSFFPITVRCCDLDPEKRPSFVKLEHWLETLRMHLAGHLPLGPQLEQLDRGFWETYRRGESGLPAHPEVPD

Regarding `Cc1c[nH]c2ncnc(C3=CCN(C(=O)Nc4ccc5ccccc5c4)CC3)c12` [Compound 13, 4-(5-Methyl-7H-pyrrolo[2,3-d]pyrimidin-4-yl)-N-(naphthalen-2-yl)-3,6-dihydropyridine-1(2H)-carboxamide], the inhibition at 25 µM in assay [1] (setting [2]) and in assay [1] (setting [3]) was 84.2% in each case. Further, the inhibition at 1 µM at ROCK1 (setting [4]) was found to be 73%; on ROCK2 (setting [5]), 56%.

As to `Cc1c[nH]c2ncnc(C3=CC(C)N(C(=O)Nc4cccc(Br)c4)CC3)c12` (stereo not shown) [Compound 49a-49b, N-(3-bromophenyl)-6-methyl-4-(5-methyl-7H-pyrrolo[2,3-d]pyrimidin-4-yl)-3,6-dihydropyridine-1(2H)-carboxamide (49a) and N-(3-bromophenyl)-2-methyl-4-(5-methyl-7H-pyrrolo[2,3-d]pyrimidin-4-yl)-3,6-dihydropyridine-1(2H)-carboxamide (49b)], in assay [1], the “% inhibition Cofilin phosphorylation HeLa cells treated 2 h with 25 uM of inhibitor” value was 88.1% and the “% inhibition of cofilin phosphorylation in HeLa cells (treatment 2 h, at 25 μM)” value is reported as 88.1%. For the same compound, the “% inhibition (ROCK1) 1 uM” value on ROCK1 is listed as 96%. Besides, the “% inhibition (ROCK2) 1 uM” value at ROCK2 turned out to be 98%.

In the case of `O=C(Nc1cccc(Oc2ccccc2)c1)N1CC=C(c2ncnc3[nH]cc(C4CC4)c23)CC1` [Compound 79, 4-(5-Cyclopropyl-7H-pyrrolo[2,3-d]pyrimidin-4-yl)-N-(3-phenoxyphenyl)-3,6-dihydropyridine-1(2H)-carboxamide], the inhibition at 25 µM in assay [1] (setting [6]) and in assay [1] (setting [7]) was 83.1% throughout. For the same compound, the inhibition at 1 µM was determined as 6% at ROCK1 (setting [4]) and 8% on ROCK2 (setting [5]). Besides, the results for the Ki on LIMK2 (Lanthascreen Eu binding assay) and on LIMK1 (Lanthascreen Eu binding assay) were 10.9 nM and 42.5 nM, respectively.

`O=C(Nc1cccc(-n2cccc2)c1)N1CC=C(c2ncnc3[nH]cc(C4CC4)c23)CC1` [Compound 81, 4-(5-Cyclopropyl-7H-pyrrolo[2,3-d]pyrimidin-4-yl)-N-(3-pyrrol-1-ylphenyl)-3,6-dihydropyridine-1(2H)-carboxamide]: the inhibition at 25 µM in assay [1] (setting [2]) and in assay [1] (setting [3]) was 90% throughout. The values for the inhibition at 1 µM at ROCK1 (setting [4]) and at ROCK2 (setting [5]) were 36% and 35%, respectively.

In the case of `COc1cccc(Oc2cccc(NC(=O)N3CC=C(c4ncnc5[nH]cc(C6CC6)c45)CC3)c2)c1` [Compound 82, 4-(5-Cyclopropyl-7H-pyrrolo[2,3-d]pyrimidin-4-yl)-N-[3-(3-methoxyphenoxy)phenyl]-3,6-dihydropyridine-1(2H)-carboxamide], the inhibition at 25 µM in assay [1] (setting [6]) and in assay [1] (setting [7]) was 82.7% in each case. For the same compound, the results for the inhibition at 1 µM on ROCK1 (setting [4]) and at ROCK2 (setting [5]) were 16% and 11%, respectively. Further, the Ki at LIMK2 (Lanthascreen Eu binding assay) amounted to 20.3 nM; on LIMK1 (Lanthascreen Eu binding assay) it was 47.4 nM.

As for `O=C(Nc1cccc(Cl)c1)N1CC=C(c2ncnc3[nH]c4c(c23)CCC4)CC1` [Compound 111, N-(3-Chlorophenyl)-4-(5,6,7,8-tetrahydrocyclopenta[4,5]pyrrolo[2,3-d]pyrimidin-4-yl)-3,6-dihydropyridine-1(2H)-carboxamide], the inhibition at 25 µM in assay [1] (setting [6]) and in assay [1] (setting [7]) was 82.3% in each case. Moreover, the inhibition at 1 µM at ROCK1 (setting [8]) is 10%; at ROCK2 (setting [9]), 14%. Moreover, the Ki on LIMK2 (Lanthascreen Eu binding assay) was 25.5 nM; on LIMK1 (Lanthascreen Eu binding assay) it was 5.78 nM.

In the case of `O=C(Nc1cccc(Br)c1)N1CC=C(c2ncnc3[nH]c4c(c23)CCC4)CC1` [Compound 112, N-(3-Bromophenyl)-4-(5,6,7,8-tetrahydrocyclopenta[4,5]pyrrolo[2,3-d]pyrimidin-4-yl)-3,6-dihydropyridine-1(2H)-carboxamide], the inhibition at 25 µM in assay [1] (setting [2]) and in assay [1] (setting [3]) was 84.5% throughout. Further, the inhibition at 1 µM was found to be 8% at ROCK1 (setting [8]) and 13% at ROCK2 (setting [9]). Also, the Ki on LIMK2 is 24 nM; on LIMK1 it was 7 nM.

With `O=C(Nc1cccc(F)c1)N1CC=C(c2ncnc3[nH]c4c(c23)CCCC4)CC1` [Compound 113, N-(3-Fluorophenyl)-4-(6,7,8,9-tetrahydro-5H-pyrimido[4,5-b]indol-4-yl)-3,6-dihydropyridine-1(2H)-carboxamide], the inhibition at 25 µM in assay [1] (setting [7]) was determined as 87%. Moreover, the inhibition at 1 µM was found to be 7% on ROCK1 (setting [4]) and 4% on ROCK2 (setting [5]). The Ki at LIMK2 (Lanthascreen Eu binding assay) turned out to be 25.6 nM; at LIMK1 (Lanthascreen Eu binding assay), 7.13 nM.

`O=C(Nc1cccc(Br)c1)N1CC=C(c2ncnc3[nH]c4c(c23)CCCC4)CC1` [Compound 115, N-(3-Bromophenyl)-4-(6,7,8,9-tetrahydro-5H-pyrimido[4,5-b]indol-4-yl)-3,6-dihydropyridine-1(2H)-carboxamide]: the inhibition at 25 µM in assay [1] (setting [2]) and in assay [1] (setting [3]) was 81.8% each time. The inhibition at 1 µM worked out at 7% on ROCK1 (setting [8]) and 11% on ROCK2 (setting [9]). Besides, the Ki turned out to be 16.2 nM at LIMK2 and 5.37 nM at LIMK1.

For `O=C(Nc1cccc(F)c1)N1CC=C(c2ncnc3[nH]c4c(c23)CCCCC4)CC1` [Compound 116, N-(3-Fluorophenyl)-4-(5,6,7,8,9,10-hexahydrocyclohepta[4,5]pyrrolo[2,3-d]pyrimidin-4-yl)-3,6-dihydropyridine-1(2H)-carboxamide], the inhibition at 25 µM in assay [1] (setting [6]) and in assay [1] (setting [7]) was 73.1% in each case. The results for the inhibition at 1 µM at ROCK1 (setting [4]) and at ROCK2 (setting [5]) were -8% and -7%, respectively. Further, the Ki is 64 nM on LIMK2 (Lanthascreen Eu binding assay) and 16.5 nM at LIMK1 (Lanthascreen Eu binding assay).

`O=C(Nc1cccc(C(F)(F)F)c1)N1CC=C(c2ncnc3[nH]c4c(c23)CCC4)CC1` [Compound 128, 4-(7,9,11-Triazatricyclo[6.4.0.02,6]dodeca-1(8),2(6),9,11-tetraen-12-yl)-N[3(trifluoromethyl)phenyl]-3,6-dihydropyridine-1(2H)-carboxamide]: the “% inhibition Cofilin phosphorylation HeLa cells treated 2 h with 25 uM of inhibitor” value in assay [1] (HeLa cells, 2 h, 25 uM) was determined as 83.9%. Further, in assay [1] (Table 2, normalized to the control condition DMSO), the “% inhibition of cofilin phosphorylation in HeLa cells (treatment 2 h, at 25 μM)” value came out at 83.9%. The Ki was determined as 68.3 nM on LIMK2 (Lanthascreen Eu binding assay) and 27.1 nM at LIMK1 (Lanthascreen Eu binding assay). Further, the “% inhibition (ROCK2) 1 uM” value on ROCK2 (1 uM) was −14%.

For `Cc1c[nH]c2ncnc(C3=CCN(C(=O)Nc4cccc(Oc5cccc(OC(=O)N(C)C)c5)c4)CC3)c12` [Compound 216, 3-(3-(4-(5-methyl-7H-pyrrolo[2,3-d]pyrimidin-4-yl)-1,2,3,6-tetrahydropyridine-1-carboxamido)phenoxy)phenyl dimethylcarbamate], the values for the inhibition at 1 µM at ROCK1 (setting [8]) and on ROCK2 (setting [9]) were 71% and 56%, respectively. Also, the Ki on LIMK2 (Lanthascreen Eu binding assay) stood at 14.6 nM; at LIMK1 (Lanthascreen Eu binding assay) it was 4.88 nM.

As to `CC(=O)Nc1cccc(Oc2cccc(NC(=O)N3CC=C(c4ncnc5[nH]cc(C)c45)CC3)c2)c1` [Compound 219, N-(3-(3-acetamidophenoxy)phenyl)-4-(5-methyl-7H-pyrrolo[2,3-d]pyrimidin-4-yl)-3,6-dihydropyridine-1(2H)-carboxamide], the inhibition at 1 µM is 60% at ROCK1 (setting [4]) and 37% at ROCK2 (setting [5]). Moreover, the values for the Ki on LIMK2 (Lanthascreen Eu binding assay) and at LIMK1 (Lanthascreen Eu binding assay) were 5.46 nM and 4.93 nM, respectively.

Turning to `CNC(=O)c1cccc(Oc2cccc(NC(=O)N3CC=C(c4ncnc5[nH]cc(C)c45)CC3)c2)c1` [Compound 222, 4-(5-methyl-7H-pyrrolo[2,3-d]pyrimidin-4-yl)-N-(3-(3-(methylcarbamoyl)phenoxy)phenyl)-3,6-dihydropyridine-1(2H)-carboxamide], the inhibition at 1 µM was found to be 66% at ROCK1 (setting [4]) and 48% on ROCK2 (setting [5]). The Ki at LIMK2 (Lanthascreen Eu binding assay) was determined as 2.96 nM; at LIMK1 (Lanthascreen Eu binding assay) it was 4.59 nM.
